Measurements as given in patent US20230151003A1, “COMPOUNDS AND METHODS OF USE” (Exelixis, Inc., priority 2020, published 2023).

Columns and labels:
Met = Met (Homo sapiens, UniProt P08581); assay: Met autophosphorylation ELISA in PC-3 cells; assay type: cell-based; design: endogenous in cells; host or cells: PC-3 prostate cancer cells (ATCC #CRL-1435); conditions: Table 3 Cellular Activities, HGF-stimulated, phospho-Met ELISA, read-out: c-Met IC50
How it was run: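 Serum-starved (3 h) PC-3 cells pre-incubated 1 h with compound (8-point dose curve, 0.3% DMSO), then stimulated with 100 ng/mL recombinant human HGF for 10 min. Lysate phospho-Met (panTyr) measured by sandwich ELISA; IC50 from 4-parameter logistic fit, normalised to DMSO (100%) and reference-inhibitor (0%) controls.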

Mer = target: T1, Mer (Homo sapiens, UniProt Q12866); assay: Mer autophosphorylation ELISA in transient transfected 293A cells; assay type: cell-based; conditions: Table 3 Cellular Activities; MERTK-transfected 293A cells, phospho-Mer ELISA
T1 construct: host or cells: 293A cells (Thermo Fisher #R70507)
T1 sequence (Q12866 21-999): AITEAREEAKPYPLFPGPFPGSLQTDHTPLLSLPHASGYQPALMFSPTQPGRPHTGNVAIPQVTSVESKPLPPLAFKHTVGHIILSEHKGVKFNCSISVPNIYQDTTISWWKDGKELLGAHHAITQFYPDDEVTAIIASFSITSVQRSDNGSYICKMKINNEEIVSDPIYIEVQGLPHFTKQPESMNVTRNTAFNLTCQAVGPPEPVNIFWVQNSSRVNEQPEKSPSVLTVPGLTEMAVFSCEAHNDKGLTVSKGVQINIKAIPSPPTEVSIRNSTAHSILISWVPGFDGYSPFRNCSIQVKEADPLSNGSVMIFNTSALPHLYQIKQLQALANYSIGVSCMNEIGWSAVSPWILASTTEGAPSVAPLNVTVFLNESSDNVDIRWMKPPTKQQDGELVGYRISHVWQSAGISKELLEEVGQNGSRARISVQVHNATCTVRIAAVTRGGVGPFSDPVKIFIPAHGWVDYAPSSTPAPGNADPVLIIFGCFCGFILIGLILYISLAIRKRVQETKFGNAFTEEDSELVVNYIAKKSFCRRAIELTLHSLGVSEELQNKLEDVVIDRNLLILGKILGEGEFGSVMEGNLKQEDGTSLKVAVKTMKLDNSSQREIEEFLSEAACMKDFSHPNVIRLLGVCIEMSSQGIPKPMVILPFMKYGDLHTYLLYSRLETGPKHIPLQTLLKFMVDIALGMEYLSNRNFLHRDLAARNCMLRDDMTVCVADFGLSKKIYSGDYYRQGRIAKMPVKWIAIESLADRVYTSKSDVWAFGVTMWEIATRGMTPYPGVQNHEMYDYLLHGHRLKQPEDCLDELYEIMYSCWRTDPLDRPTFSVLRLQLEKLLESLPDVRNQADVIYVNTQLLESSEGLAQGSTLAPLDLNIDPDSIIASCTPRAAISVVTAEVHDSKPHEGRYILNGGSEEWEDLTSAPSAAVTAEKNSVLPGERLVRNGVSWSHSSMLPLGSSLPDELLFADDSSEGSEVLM
How it was run: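 293A cells transiently transfected with human MERTK DNA, replated after 24 h, then treated 1 h with 8-point compound dilutions in serum-free medium (0.3% DMSO). Lysates assayed by phospho-Mer sandwich ELISA against phospho-Mer standard; DMSO = 100%, reference inhibitor = 0% activity; IC50 by 4-parameter logistic fit.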

Chain of Met (P08581 25-1390): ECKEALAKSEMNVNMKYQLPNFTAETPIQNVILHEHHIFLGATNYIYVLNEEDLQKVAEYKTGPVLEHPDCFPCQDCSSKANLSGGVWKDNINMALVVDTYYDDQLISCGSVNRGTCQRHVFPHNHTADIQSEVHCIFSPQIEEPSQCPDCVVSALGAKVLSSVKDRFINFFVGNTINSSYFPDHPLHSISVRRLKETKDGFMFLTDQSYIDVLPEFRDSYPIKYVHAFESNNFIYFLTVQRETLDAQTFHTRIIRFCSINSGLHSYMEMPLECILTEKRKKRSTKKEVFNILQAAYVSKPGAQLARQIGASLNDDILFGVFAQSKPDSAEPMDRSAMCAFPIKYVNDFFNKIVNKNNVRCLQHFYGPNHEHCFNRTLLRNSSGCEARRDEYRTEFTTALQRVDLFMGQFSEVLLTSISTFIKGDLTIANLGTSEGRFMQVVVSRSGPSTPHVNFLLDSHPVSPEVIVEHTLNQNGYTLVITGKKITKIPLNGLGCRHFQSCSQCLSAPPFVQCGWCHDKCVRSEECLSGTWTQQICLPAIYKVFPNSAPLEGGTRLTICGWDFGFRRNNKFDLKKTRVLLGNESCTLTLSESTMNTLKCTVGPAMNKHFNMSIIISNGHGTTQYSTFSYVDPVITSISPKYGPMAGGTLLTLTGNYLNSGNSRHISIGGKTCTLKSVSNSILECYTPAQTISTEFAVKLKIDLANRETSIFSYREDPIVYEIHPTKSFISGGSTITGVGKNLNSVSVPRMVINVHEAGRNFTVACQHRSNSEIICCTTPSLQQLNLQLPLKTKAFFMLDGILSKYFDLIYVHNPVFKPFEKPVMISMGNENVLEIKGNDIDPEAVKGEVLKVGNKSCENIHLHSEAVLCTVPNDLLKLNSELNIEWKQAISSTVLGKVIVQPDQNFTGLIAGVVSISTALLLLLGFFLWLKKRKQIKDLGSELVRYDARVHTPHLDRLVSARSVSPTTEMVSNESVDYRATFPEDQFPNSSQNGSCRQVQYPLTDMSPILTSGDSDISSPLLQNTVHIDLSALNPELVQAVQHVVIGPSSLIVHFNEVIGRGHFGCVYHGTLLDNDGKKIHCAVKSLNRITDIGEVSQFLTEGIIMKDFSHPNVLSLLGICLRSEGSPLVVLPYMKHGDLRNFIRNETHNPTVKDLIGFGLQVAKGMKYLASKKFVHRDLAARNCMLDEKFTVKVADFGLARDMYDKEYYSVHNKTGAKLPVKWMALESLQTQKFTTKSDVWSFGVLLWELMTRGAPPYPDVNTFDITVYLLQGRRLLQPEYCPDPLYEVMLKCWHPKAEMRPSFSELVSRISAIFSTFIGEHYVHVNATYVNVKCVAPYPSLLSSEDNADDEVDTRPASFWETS

Structure (SMILES)	IC50 (Met) [nM]	IC50 (Mer) [nM]
COc1cc2nccc(Oc3ccc(NC(=O)c4cnc(C)c(-c5ccc(C)s5)c4O)cc3F)c2nc1OC [Compound 94, N-[4-[(6,7-Dimethoxy-1,5-naphthyridin-4-yl)oxy]-3-fluoro-phenyl]-4-hydroxy-6-methyl-5-(5-methyl-2-thienyl) pyridine-3-carboxamide]	≤ 100	≤ 100
COc1cc2nccc(Oc3ccc(NC(=O)c4cnc(C)c(-c5cc(C(F)(F)F)nn5C)c4O)cc3F)c2nc1OC [Compound 105]	100 to 300	≤ 100
COc1cnc2c(Oc3ccc(NC(=O)c4cn(CCF)c(C)c(-c5ccsc5)c4=O)cc3F)ccnc2c1 [Compound 330, 1-(2-Fluoroethyl)-N-[3-fluoro-4-[(7-methoxy-1,5-naphthyridin-4-yl)oxy]phenyl]-6-methyl-4-oxo-5-thiophen-3-ylpyridine-3-carboxamide]	≤ 100	≤ 100
COc1cnc2c(Oc3ccc(NC(=O)c4cnc(C)c(-c5ccc(C)o5)c4O)cc3F)ccnc2c1 [Compound 97, N-[3-Fluoro-4-[(7-methoxy-1,5-naphthyridin-4-yl)oxy]phenyl]-4-hydroxy-6-methyl-5-(5-methyl-2-furyl)pyridine-3-carboxamide]	100 to 300	≤ 100
